We go through 28 compounds from US9000022B2 (Exelixis Patent Company LLC, priority 2005, dated 2015).

Structures are written as SMILES.

This assay relates to LXRα and/or LXRβ. In words: Co-transfection assay (LXRE luciferase reporter, CV-1 cells). It is filed as cell-based, human. To be noted: tested as described in Example 33; IC50 or EC50 for LXRα and/or LXRβ, isoform not specified; read-out: activity (IC50 or EC50 for LXR). The method in brief: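 Luciferase signal measures LXR-RXR transcriptional activation in transiently transfected CV-1 cells carrying human LXRα or LXRβ, RXRα and a single-copy LXRE reporter. Cells were exposed to compound for 20 h at 37 °C with at most 1% DMSO, using 10 μM final for screening. Potency was derived from 4-parameter fits of 8-point, half-log dose curves averaged over ≥3 runs, and efficacy was expressed as % of a reference agonist.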

As to `CC(C)(O)c1cn(-c2ccc(-c3cccc(S(C)(=O)=O)c3)cc2Cl)c(-c2ccccc2C(F)(F)F)n1` [Example 135, 2-(1-(3-chloro-3′-(methyl-sulfonyl)biphenyl-4-yl)-2-(2-(trifluoromethyl)phenyl)-1H-imidazol-4-yl)propan-2-ol], the IC50 or EC50 (potency, activation or inhibition) is less than 1000 nM.

For `CCS(=O)(=O)c1cccc(-c2ccc(-n3cc(C(C)(C)O)nc3-c3ccccc3C(F)(F)F)c(Cl)c2)c1` [Example 136, 2-(1-(3-chloro-3′-(ethyl-sulfonyl)biphenyl-4-yl)-2-(2-(trifluoromethyl)phenyl)-1H-imidazol-4-yl)propan-2-ol], the IC50 or EC50 (potency, activation or inhibition) is less than 1000 nM. With `CCS(=O)(=O)c1cccc(-c2ccc(-n3cc(C(C)(C)O)nc3-c3ccccc3Cl)c(Cl)c2)c1` [Example 137, 2-(1-(3-chloro-3′-(ethyl-sulfonyl)biphenyl-4-yl)-2-(2-chlorophenyl)-1H-imidazol-4-yl)propan-2-ol], the IC50 or EC50 (potency, activation or inhibition) is less than 1000 nM. For the compound `CC(C)(O)c1cn(-c2ccc(-c3ccc(CO)c(S(C)(=O)=O)c3)cc2Cl)c(-c2ccccc2Cl)n1` [Example 138, 2-(1-(3-chloro-4′-(hydroxymethyl)-3′-(methylsulfonyl)biphenyl-4-yl)-2-(2-chlorophenyl)-1H-imidazol-4-yl)propan-2-ol], the IC50 or EC50 (potency, activation or inhibition) is less than 1000 nM.

In the case of `CC(C)(O)c1cn(-c2ccc(-c3ccc(CO)c(S(C)(=O)=O)c3)cc2Cl)c(-c2ccccc2C(F)(F)F)n1` [Example 139, 2-(1-(3-chloro-4′-(hydroxymethyl)-3′-(methylsulfonyl)biphenyl-4-yl)-2-(2-(trifluoromethyl)phenyl)-1H-imidazol-4-yl)propan-2-ol], the IC50 or EC50 (potency, activation or inhibition) is less than 1000 nM. To `CC(C)(O)c1cn(-c2ccc(-c3cccc(S(C)(=O)=O)c3)cc2Cl)c(-c2cccc(Cl)c2Cl)n1` [Example 140, 2-(1-(3-chloro-3′-(methyl-sulfonyl)biphenyl-4-yl)-2-(2,3-dichlorophenyl)-1H-imidazol-4-yl)propan-2-ol] belongs less than 1000 nM. To `CCS(=O)(=O)c1cccc(-c2ccc(-n3cc(C(C)(C)O)nc3-c3cccc(Cl)c3Cl)c(Cl)c2)c1` [Example 141, 2-(1-(3-chloro-3′-(ethyl-sulfonyl)biphenyl-4-yl)-2-(2,3-dichlorophenyl)-1H-imidazol-4-yl)propan-2-ol] belongs less than 1000 nM. To `CC(C)(O)c1cn(-c2ccc(-c3cccc(S(C)(=O)=O)c3)cc2Cl)c(-c2c(Cl)cccc2Cl)n1` [Example 142, 2-(1-(3-chloro-3′-(methyl-sulfonyl)biphenyl-4-yl)-2-(2,6-dichlorophenyl)-1H-imidazol-4-yl)propan-2-ol] belongs less than 1000 nM; to `Cc1c(Cl)cccc1-c1nc(C(C)(C)O)cn1-c1ccc(-c2cccc(S(C)(=O)=O)c2)cc1Cl` [Example 143, 2-(2-(3-chloro-2-methylphenyl)-1-(3-chloro-3′-(methylsulfonyl)biphenyl-4-yl)-1H-imidazol-4-yl)propan-2-ol], less than 1000 nM.

`CCS(=O)(=O)c1cccc(-c2ccc(-n3cc(C(C)(C)O)nc3-c3cccc(Cl)c3C)c(Cl)c2)c1` [Example 144, 2-(2-(3-chloro-2-methylphenyl)-1-(3-chloro-3′-(ethylsulfonyl)biphenyl-4-yl)-1H-imidazol-4-yl)propan-2-ol]: the IC50 or EC50 (potency, activation or inhibition) is less than 1000 nM. For `CC(C)(O)c1cn(-c2ccc(-c3cccc(S(C)(=O)=O)c3)cc2Cl)c(-c2c(F)cccc2Cl)n1` [Example 145, 2-(1-(3-chloro-3′-(methyl-sulfonyl)biphenyl-4-yl)-2-(2-chloro-6-fluorophenyl)-1H-imidazol-4-yl)propan-2-ol], the IC50 or EC50 (potency, activation or inhibition) is less than 1000 nM. To `CCS(=O)(=O)c1cccc(-c2ccc(-n3cc(C(C)(C)O)nc3-c3c(F)cccc3Cl)c(Cl)c2)c1` [Example 146, 2-(1-(3-chloro-3′-(ethyl-sulfonyl)biphenyl-4-yl)-2-(2-chloro-6-fluorophenyl)-1H-imidazol-4-yl)propan-2-ol] belongs less than 1000 nM; to `CC(C)(O)c1cn(-c2ccc(-c3ccc(CO)c(S(C)(=O)=O)c3)cc2Cl)c(-c2c(F)cccc2Cl)n1` [Example 147, 2-(1-(3-chloro-4′-(hydroxymethyl)-3′-(methylsulfonyl)biphenyl-4-yl)-2-(2-chloro-6-fluorophenyl)-1H-imidazol-4-yl)propan-2-ol], less than 1000 nM; to `CC(C)(O)c1cn(-c2ccc(-c3ccc(CO)c(S(C)(=O)=O)c3)cc2Cl)c(-c2cccc(Cl)c2Cl)n1` [Example 148, 2-(1-(3-chloro-4′-(hydroxymethyl)-3′-(methylsulfonyl)biphenyl-4-yl)-2-(2,3-dichlorophenyl)-1H-imidazol-4-yl)propan-2-ol], less than 1000 nM. To `CC(C)(O)c1cn(-c2ccc(-c3ccc(CO)c(S(C)(=O)=O)c3)cc2Cl)c(-c2c(Cl)cccc2Cl)n1` [Example 149, 2-(1-(3-chloro-4′-(hydroxymethyl)-3′-(methylsulfonyl)biphenyl-4-yl)-2-(2,6-dichlorophenyl)-1H-imidazol-4-yl)propan-2-ol] belongs less than 1000 nM. As for `CCS(=O)(=O)c1cccc(-c2ccc(-n3cc(C(C)(C)O)nc3-c3c(Cl)cccc3Cl)c(Cl)c2)c1` [Example 150, 2-(1-(3-chloro-3′-(ethyl-sulfonyl)biphenyl-4-yl)-2-(2,6-dichlorophenyl)-1H-imidazol-4-yl)propan-2-ol], the IC50 or EC50 (potency, activation or inhibition) is less than 1000 nM. To `CC(C)(O)c1cn(-c2ccc(-c3cccc(S(C)(=O)=O)c3)cc2Cl)c(-c2cccc(F)c2Cl)n1` [Example 151, 2-(1-(3-chloro-3′-(methyl-sulfonyl)biphenyl-4-yl)-2-(2-chloro-3-fluorophenyl)-1H-imidazol-4-yl)propan-2-ol] belongs less than 1000 nM. Regarding `CCS(=O)(=O)c1cccc(-c2ccc(-n3cc(C(C)(C)O)nc3-c3cccc(F)c3Cl)c(Cl)c2)c1` [Example 152, 2-(1-(3-chloro-3′-(ethyl-sulfonyl)biphenyl-4-yl)-2-(2-chloro-3-fluorophenyl)-1H-imidazol-4-yl)propan-2-ol], the IC50 or EC50 (potency, activation or inhibition) is less than 1000 nM.

With `CC(C)(O)c1cn(-c2ccc(-c3ccc(CO)c(S(C)(=O)=O)c3)cc2Cl)c(-c2cccc(F)c2Cl)n1` [Example 153, 2-(2-(2-chloro-3-fluorophenyl)-1-(3-chloro-4′-(hydroxymethyl)-3′-(methylsulfonyl)biphenyl-4-yl)-1H-imidazol-4-yl)propan-2-ol], the IC50 or EC50 (potency, activation or inhibition) was less than 1000 nM. To `CCS(=O)(=O)c1cccc(-c2ccc(-n3cc(C(C)(C)O)nc3-c3c(C)cccc3Cl)c(Cl)c2)c1` [Example 154, 2-(1-(3-chloro-3′-(ethyl-sulfonyl)biphenyl-4-yl)-2-(2-chloro-6-methylphenyl)-1H-imidazol-4-yl)propan-2-ol] belongs less than 1000 nM. To `Cc1cccc(Cl)c1-c1nc(C(C)(C)O)cn1-c1ccc(-c2ccc(CO)c(S(C)(=O)=O)c2)cc1Cl` [Example 155, 2-(1-(3-chloro-4′-(hydroxy-methyl)-3′-(methylsulfonyl)biphenyl-4-yl)-2-(2-chloro-6-methylphenyl)-1H-imidazol-4-yl)propan-2-ol] belongs less than 1000 nM; to `Cc1cccc(Cl)c1-c1nc(C(C)(C)O)cn1-c1ccc(-c2cccc(S(C)(=O)=O)c2)cc1Cl` [Example 156, 2-(1-(3-chloro-3′-(methyl-sulfonyl)biphenyl-4-yl)-2-(2-chloro-6-methylphenyl)-1H-imidazol-4-yl)propan-2-ol], less than 1000 nM.

On to `CC(C)(O)c1cn(-c2ccc(-c3cccc(S(C)(=O)=O)c3)cc2Cl)c(-c2c(F)cccc2F)n1` [Example 157, 2-(1-(3-chloro-3′-(methyl-sulfonyl)biphenyl-4-yl)-2-(2,6-difluorophenyl)-1H-imidazol-4-yl)propan-2-ol], for which the IC50 or EC50 (potency, activation or inhibition) was less than 1000 nM.

Turning to `CCS(=O)(=O)c1cccc(-c2ccc(-n3cc(C(C)(C)O)nc3-c3c(F)cccc3F)c(Cl)c2)c1` [Example 158, 2-(1-(3-chloro-3′-(ethyl-sulfonyl)biphenyl-4-yl)-2-(2,6-difluorophenyl)-1H-imidazol-4-yl)propan-2-ol], the IC50 or EC50 (potency, activation or inhibition) was less than 1000 nM. To `CC(C)(O)c1cn(-c2ccc(-c3ccc(CO)c(S(C)(=O)=O)c3)cc2Cl)c(-c2c(F)cccc2F)n1` [Example 159, 2-(1-(3-chloro-4′-(hydroxymethyl)-3′-(methylsulfonyl)biphenyl-4-yl)-2-(2,6-difluorophenyl)-1H-imidazol-4-yl)propan-2-ol] belongs less than 1000 nM; to `Cc1c(Cl)cccc1-c1nc(C(C)(C)O)cn1-c1ccc(-c2ccc(CO)c(S(C)(=O)=O)c2)cc1Cl` [Example 160, 2-(2-(3-chloro-2-methylphenyl)-1-(3-chloro-4′-(hydroxymethyl)-3′-(methylsulfonyl)biphenyl-4-yl)-1H-imidazol-4-yl)propan-2-ol], less than 1000 nM; to `CC(C)c1ccccc1-c1nc(C(C)(C)O)cn1-c1ccc(-c2cccc(S(C)(=O)=O)c2)cc1Cl` [Example 161, 2-(1-(3-chloro-3′-(methyl-sulfonyl)biphenyl-4-yl)-2-(2-isopropylphenyl)-1H-imidazol-4-yl)propan-2-ol], less than 1000 nM. Turning to `CC(C)(O)c1cn(-c2ccc(-c3ccc(C(C)(C)O)c(S(C)(=O)=O)c3)cc2Cl)c(-c2ccccc2Cl)n1` [Example 162, 2-(3′-chloro-4′-(2-(2-chlorophenyl)-4-(2-hydroxypropan-2-yl)-1H-imidazol-1-yl)-3-(methylsulfonyl)biphenyl-4-yl)propan-2-ol], the IC50 or EC50 (potency, activation or inhibition) was less than 1000 nM.
